Source: patent EP0385381A2, “Inhibitor of restenosis after percutaneous transluminal coronary angioplasty” (DAIICHI PHARMACEUTICAL CO., LTD., priority 1989, dated 1990)
Where a name gives a salt, the structure may show the parent alone.

Tested on: post-PTCA restenosis
Test: Clinical study of inhibition of post-PTCA restenosis, evaluated from coronary angiographic findings
Type: in vivo, patients with angina pectoris
Method: In 18 patients with angina pectoris in whom elective PTCA was indicated, 6-(1-imidazolylmethyl)- 5,6,7,8-tetrahydronaphthalene-2-carboxylic acid hydrochloride hemihydrate (hereinafter, referred to as Compound A) was administered orally in a dose of 200 mg three times a day after each meal (600 mg/day) pre-angioplasty, beginning about three days before PTCA, and post angioplasty for 3 months (treated group). Coronary angiography was performed before, immediately after, and 3 months after PTCA. Based on the coronary angiographic findings, inhibition of restenosis of the right coronary artery, left anterior descending artery and left circumflex artery was evaluated, by site of lesion, according to the criteria in Table 1 shown below. Further, based on the results of the evaluation, overall efficacy evaluation by individual patient was made.
In regard to luminal diameter: • 1. Excellent post-angioplasty course: unchanged or expanded • 2. Good post-angioplasty course: a decrease in luminal diameter of less than 50% • 3. Poor post-angioplasty course: a decrease in luminal diameter of 50% or more and less than 100% • 4. Worse post-angioplasty course: a decrease in luminal diameter of 100% or progression of stenosis as compared with pre-PTCA condition
As controls (control group), placebo was similarly administered to 15 patients with angina pectoris in whom effective PTCA was indicated and coronary angiography was performed before and after PTCA.
In both of the treated and control groups, calcium antagonists, viz. nifedipine and diltiazem, antianginal drugs, viz. ISDN and nicorandil, and antiarteriosclerotic agents, viz. elastase, etc. were used concurrently as necessary as shown in Table 2 below. However, there was no significant difference (χ² test) between the two groups in the use of concomitant drugs, as in other patient characteristics.

[1] = Left Anterior Descending Artery, number of lesions rated (of 9), 600 mg/day oral, 3 months after PTCA
[2] = Left Circumflex Artery, number of lesions rated (of 11), 600 mg/day oral, 3 months after PTCA
[3] = Right Coronary Artery, number of lesions rated (of 8), 600 mg/day oral, 3 months after PTCA
[4] = Total, number of lesions rated (of 28), Wilcoxon test P=0.100 vs control group
[5] = number of patients rated (of 18), Wilcoxon test P=0.010 vs control group

Structure (SMILES): O=C(O)c1ccc2c(c1)CCC(Cn1ccnc1)C2 (stereo not drawn) [Compound A, 6-(1-imidazolylmethyl)-5,6,7,8-tetrahydronaphthalene-2-carboxylic acid hydrochloride hemihydrate]
- Overall Efficacy Evaluation, by Individual Patient: Excellent, Cumulative % (18 patients): (38.9%)
- Overall Efficacy Evaluation, by Individual Patient: Good, Cumulative % (18 patients, Excellent plus Good): (77.8%)
- Evaluation of coronary angiographic findings by site of lesion: Excellent [1]: 4
- Evaluation of coronary angiographic findings by site of lesion: Good [1]: 3
- Evaluation of coronary angiographic findings by site of lesion: Poor [1]: 1
- Evaluation of coronary angiographic findings by site of lesion: Worse [1]: 1
- Evaluation of coronary angiographic findings by site of lesion: Excellent [2]: 2
- Evaluation of coronary angiographic findings by site of lesion: Good [2]: 7
- Evaluation of coronary angiographic findings by site of lesion: Poor [2]: 1
- Evaluation of coronary angiographic findings by site of lesion: Worse [2]: 1
- Evaluation of coronary angiographic findings by site of lesion: Excellent [3]: 3
- Evaluation of coronary angiographic findings by site of lesion: Good [3]: 4
- Evaluation of coronary angiographic findings by site of lesion: Poor [3]: 0
- Evaluation of coronary angiographic findings by site of lesion: Worse [3]: 1
- Evaluation of coronary angiographic findings by site of lesion: Excellent, Cumulative % (Total of 28 lesions): (32.1%)
- Evaluation of coronary angiographic findings by site of lesion: Good, Cumulative % (Total of 28 lesions, Excellent plus Good): (83.1%)
- Evaluation of coronary angiographic findings by site of lesion: Excellent [4]: 9
- Evaluation of coronary angiographic findings by site of lesion: Good [4]: 14
- Evaluation of coronary angiographic findings by site of lesion: Poor [4]: 2
- Evaluation of coronary angiographic findings by site of lesion: Worse [4]: 3
- Overall Efficacy Evaluation, by Individual Patient: Excellent (number of patients rated (of 18), Wilcoxon test P=0.010, Fisher test (excellent ratings) P=0.009 vs control group): 7
- Overall Efficacy Evaluation, by Individual Patient: Good [5]: 7
- Overall Efficacy Evaluation, by Individual Patient: Poor [5]: 3
- Overall Efficacy Evaluation, by Individual Patient: Worse [5]: 1
